Five molecules from PMC10509173, “Deep learning driven de novo drug design based on gastric proton pump structures” (Communications Biology, 2023) can be followed below.

By IC50 is commonly meant the midpoint of a concentration-inhibition curve.

“And” between values parts separate entries of the source, which are not always exact repeats. Equal values may be shown once. Bounds are passed on as bounds.

The assay concerns the target H+,K+-ATPase (Sus scrofa, UniProt P19156). The assay is described as follows: Dose-dependent inhibition of H+,K+-ATPase activity, membrane fractions. As to conditions: for H+,K+-ATPase activity, raw data of dose-dependent inhibition: single replicate values.
The mark [1] stands for this setting: [PCAB] -3.30103 (log, unit not given).
Setting [2] is: [PCAB] -3.52288 (log, unit not given).
Where [3] appears, read: [PCAB] -4 (log, unit not given).
Where [4] appears, read: [PCAB] -4.30103 (log, unit not given).
Where [5] appears, read: [PCAB] -4.52288 (log, unit not given).
The mark [6] stands for this setting: [PCAB] -5 (log, unit not given).
Setting [7] is: [PCAB] -5.52288 (log, unit not given).
The mark [8] stands for this setting: [PCAB] -6 (log, unit not given).
Setting [9] is: [PCAB] -6.30103 (log, unit not given).
The mark [10] stands for this setting: [PCAB] -7 (log, unit not given).
The mark [11] stands for this setting: [PCAB] -8 (log, unit not given).
The mark [12] stands for this setting: [PCAB] -11 (log, unit not given; possibly placeholder for no compound).

H+,K+-ATPase, sequence (P19156 2-1034 limits assumed): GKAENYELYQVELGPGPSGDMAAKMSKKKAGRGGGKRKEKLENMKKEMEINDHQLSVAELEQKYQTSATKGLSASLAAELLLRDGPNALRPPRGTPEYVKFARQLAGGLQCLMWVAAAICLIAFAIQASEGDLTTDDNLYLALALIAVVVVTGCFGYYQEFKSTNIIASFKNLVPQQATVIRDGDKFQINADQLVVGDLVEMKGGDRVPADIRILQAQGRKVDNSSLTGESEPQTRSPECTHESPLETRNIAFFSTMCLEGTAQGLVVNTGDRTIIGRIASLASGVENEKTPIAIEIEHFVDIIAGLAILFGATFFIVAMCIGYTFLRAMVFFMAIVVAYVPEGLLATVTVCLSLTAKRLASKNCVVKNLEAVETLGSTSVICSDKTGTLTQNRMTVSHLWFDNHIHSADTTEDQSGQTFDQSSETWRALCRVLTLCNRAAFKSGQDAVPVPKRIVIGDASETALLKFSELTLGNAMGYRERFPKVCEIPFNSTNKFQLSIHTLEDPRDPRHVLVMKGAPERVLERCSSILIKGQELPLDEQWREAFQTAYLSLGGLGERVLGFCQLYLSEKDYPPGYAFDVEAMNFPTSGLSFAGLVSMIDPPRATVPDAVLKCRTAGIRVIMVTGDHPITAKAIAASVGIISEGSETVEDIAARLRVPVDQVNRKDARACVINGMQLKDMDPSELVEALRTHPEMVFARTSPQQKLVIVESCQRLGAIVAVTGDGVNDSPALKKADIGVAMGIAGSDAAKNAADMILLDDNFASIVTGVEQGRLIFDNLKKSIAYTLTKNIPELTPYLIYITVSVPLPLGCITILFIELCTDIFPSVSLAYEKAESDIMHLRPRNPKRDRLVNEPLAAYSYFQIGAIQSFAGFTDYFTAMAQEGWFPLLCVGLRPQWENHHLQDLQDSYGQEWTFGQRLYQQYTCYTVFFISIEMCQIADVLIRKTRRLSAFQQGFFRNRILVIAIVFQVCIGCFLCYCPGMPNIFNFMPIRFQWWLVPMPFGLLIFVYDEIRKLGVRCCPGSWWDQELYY
H+,K+-ATPase, sequence (P18434 whole entry partner): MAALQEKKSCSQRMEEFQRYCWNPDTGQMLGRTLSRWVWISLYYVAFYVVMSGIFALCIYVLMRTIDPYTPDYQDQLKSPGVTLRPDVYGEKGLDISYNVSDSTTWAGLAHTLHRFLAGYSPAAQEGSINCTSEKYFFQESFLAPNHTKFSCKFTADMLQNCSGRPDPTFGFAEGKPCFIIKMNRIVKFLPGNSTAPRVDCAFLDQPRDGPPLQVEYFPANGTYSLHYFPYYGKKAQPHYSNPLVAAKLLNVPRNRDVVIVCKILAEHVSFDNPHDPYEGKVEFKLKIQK

The molecule `CNCc1ccc(OCc2cc(Cl)ccc2OCc2ccc(Cl)cc2)c(Cl)c1` [DQ-07] displayed a half-maximal inhibitory concentration (IC50) of 3.2 ± 0.2 µM. Besides, the “H+,K+-ATPase activity, raw data of dose-dependent inhibition” value under setting [1] is 0.27 and 0.6 and 3.27 and 8.56 and 2.84 and 6.16. For the same molecule, under setting [2], the “H+,K+-ATPase activity, raw data of dose-dependent inhibition” value is -0.35 and -0.17 and 2.58 and 2.95 and 2.71 and 3.29. Besides, the “H+,K+-ATPase activity, raw data of dose-dependent inhibition” value under setting [3] is -1.84 and -1.63 and 1.31 and 1.18 and 1.05 and 1.62. The “H+,K+-ATPase activity, raw data of dose-dependent inhibition” value under setting [4] is -1.84 and -1.6 and 2.69 and 2.52 and 2.83 and 2.8. Also, the “H+,K+-ATPase activity, raw data of dose-dependent inhibition” value under setting [5] was -1.24 and -1.47 and 3.31 and 3.19 and 3.75 and 3.57. Under setting [6], the “H+,K+-ATPase activity, raw data of dose-dependent inhibition” value was 4.55 and 4.67 and 12.66 and 12.06 and 13.24 and 12.08. In addition, the “H+,K+-ATPase activity, raw data of dose-dependent inhibition” value under setting [7] is 45.69 and 44.11 and 51.61 and 59.03 and 63.14 and 61.87. Moreover, the “H+,K+-ATPase activity, raw data of dose-dependent inhibition” value under setting [8] was 84.95 (2×) and 82.82 and 90.61 and 90.08 and 95.69. Also, the “H+,K+-ATPase activity, raw data of dose-dependent inhibition” value under setting [9] is 90.87 and 90.7 and 95.03 and 96.7 and 92.33 and 94.31. Moreover, the “H+,K+-ATPase activity, raw data of dose-dependent inhibition” value under setting [10] was 96.69 and 96.52 and 102.14 and 98.38 and 97.9 and 99.91. The “H+,K+-ATPase activity, raw data of dose-dependent inhibition” value under setting [11] was 96.57 and 99.63 and 102.72 and 99.81 and 97.87 and 101.66. The “H+,K+-ATPase activity, raw data of dose-dependent inhibition” value under setting [12] was 100.45 and 97.72 and 103.9 and 100.73 and 98.44 and 100.87.
As to `CNCC#CCn1ccnc1NC(=O)c1ccccc1` [DQ-09], the IC50 was > 2000 µM. Further, the “H+,K+-ATPase activity, raw data of dose-dependent inhibition” value ([PCAB] -3.455 (log, unit not given)) was 63.11 and 66.04 and 91.33 and 94.1 and 93.4 and 93.07. In addition, the “H+,K+-ATPase activity, raw data of dose-dependent inhibition” value ([PCAB] -3.67685 (log, unit not given)) is 81.52 and 80.18 and 94.54 and 95.44 and 96.5 and 95.18. For the same molecule, the “H+,K+-ATPase activity, raw data of dose-dependent inhibition” value ([PCAB] -4.15397 (log, unit not given)) was 92.95 and 94.76 and 92.15 and 93.44 and 92.03 and 93.77. Moreover, the “H+,K+-ATPase activity, raw data of dose-dependent inhibition” value ([PCAB] -4.455 (log, unit not given)) is 99 and 99.88 and 97.42 and 97.61 and 95.39 and 91.33. Also, the “H+,K+-ATPase activity, raw data of dose-dependent inhibition” value ([PCAB] -4.67685 (log, unit not given)) is 97.65 and 97.31 and 107.67 and 103.09 and 98.87 and 105.02. Also, the “H+,K+-ATPase activity, raw data of dose-dependent inhibition” value ([PCAB] -5.15397 (log, unit not given)) was 99.93 and 96.29 and 97.51 and 98.34 and 88.34 and 93.86. Besides, the “H+,K+-ATPase activity, raw data of dose-dependent inhibition” value ([PCAB] -5.67685 (log, unit not given)) is 101.49 and 99.52 and 93.88 and 106.02 and 103.98 and 106.05. In addition, the “H+,K+-ATPase activity, raw data of dose-dependent inhibition” value ([PCAB] -6.15397 (log, unit not given)) was 99.11 and 99.53 and 98.71 and 99.47 and 95.43 and 99.9. Besides, the “H+,K+-ATPase activity, raw data of dose-dependent inhibition” value ([PCAB] -7.00046 (log, unit not given)) was 100.13 and 101.44 and 98.87 and 102.62 and 97 and 100.92. The “H+,K+-ATPase activity, raw data of dose-dependent inhibition” value ([PCAB] -7.15397 (log, unit not given)) is 100.4 and 99.7 and 97.72 and 99.58 and 95.86 and 98.79. The “H+,K+-ATPase activity, raw data of dose-dependent inhibition” value ([PCAB] -8.15397 (log, unit not given)) is 99.08 and 99.65 and 97.54 and 97.72 and 99.14 and 96.06. Moreover, the “H+,K+-ATPase activity, raw data of dose-dependent inhibition” value under setting [12] is 99.26 and 98.65 and 101.5 and 98.45 and 98.97 and 101.13.
Consider `OCc1ccc(OCc2ccccc2OCc2ccccc2)cc1` [DQ-10], for which 292 ± 67 µM corresponded to half-maximal inhibition (IC50). Also, the “H+,K+-ATPase activity, raw data of dose-dependent inhibition” value under setting [1] was 43.38 and 44.41 and 45.92 and 45.13 and 45.42 and 45.93. Further, the “H+,K+-ATPase activity, raw data of dose-dependent inhibition” value under setting [2] is 45.74 and 44.58 and 47.45 and 47.39 and 47.18 and 50.77. Moreover, the “H+,K+-ATPase activity, raw data of dose-dependent inhibition” value under setting [3] was 56.05 and 53.52 and 55.98 and 54.18 and 54.88 and 57.9. Besides, under setting [4], the “H+,K+-ATPase activity, raw data of dose-dependent inhibition” value was 76.31 and 75.72 and 105.39 and 105.73 and 101.62 and 104.74. Besides, under setting [5], the “H+,K+-ATPase activity, raw data of dose-dependent inhibition” value was 93.17 and 93.5 and 97.58 and 97.31 and 105.67 and 98.13. For the same molecule, under setting [6], the “H+,K+-ATPase activity, raw data of dose-dependent inhibition” value is 105.05 and 103.17 and 107.45 and 104.86 and 105.64 and 102. Also, under setting [7], the “H+,K+-ATPase activity, raw data of dose-dependent inhibition” value was 97.45 and 97.17 and 101.99 and 103.63 and 102.59 and 100.01. Besides, the “H+,K+-ATPase activity, raw data of dose-dependent inhibition” value under setting [8] is 100.27 and 101.99 and 106.56 and 102.96 and 101.68 and 100.85. Further, the “H+,K+-ATPase activity, raw data of dose-dependent inhibition” value under setting [9] is 96.05 and 88 and 94.05 and 95.4 and 97.95 and 97.13. Also, the “H+,K+-ATPase activity, raw data of dose-dependent inhibition” value under setting [10] was 93.18 and 94.04 and 98.08 and 97.4 and 96.62 and 95.63. Under setting [11], the “H+,K+-ATPase activity, raw data of dose-dependent inhibition” value is 97.94 and 95.96 and 97.5 and 99.04 and 99.69 and 102.43. Besides, under setting [12], the “H+,K+-ATPase activity, raw data of dose-dependent inhibition” value is 97.84 and 98.7 and 100.06 and 101.42 and 100.78 and 96.
With `CNCC#CCOCc1cc(Cl)ccc1-c1ccc(Cl)c(F)c1` [DQ-04], inhibition was half-maximal at 33.9 ± 3.8 µM (IC50). Besides, the “H+,K+-ATPase activity, raw data of dose-dependent inhibition” value under setting [1] was 0.25 and -0.25 and -0.38 and 0.38 and -0.3 and -3.39. The “H+,K+-ATPase activity, raw data of dose-dependent inhibition” value under setting [2] is 1.96 and 3.36 and 3.54 and 3.3 and 3.08 and 0.78. For the same molecule, under setting [3], the “H+,K+-ATPase activity, raw data of dose-dependent inhibition” value is 36.71 and 36.26 and 38.13 and 35.18 and 35.01 and 32.77. For the same molecule, the “H+,K+-ATPase activity, raw data of dose-dependent inhibition” value under setting [4] was 44 and 42.16 and 21.74 and 21.63 and 20.87 and 17.27. For the same molecule, the “H+,K+-ATPase activity, raw data of dose-dependent inhibition” value under setting [5] is 54.64 and 55.71 and 47.64 and 52.61 and 61.59 and 63.39. Further, the “H+,K+-ATPase activity, raw data of dose-dependent inhibition” value under setting [6] is 84.91 and 81.14 and 76.84 and 80.91 and 85.5 and 81.75. The “H+,K+-ATPase activity, raw data of dose-dependent inhibition” value under setting [7] was 98.14 and 98.72 and 86.17 and 97.35 and 92.86 and 93.01. For the same molecule, the “H+,K+-ATPase activity, raw data of dose-dependent inhibition” value under setting [8] is 100.43 and 99.64 (2×) and 95.5 and 94.06 and 98.22. For the same molecule, under setting [9], the “H+,K+-ATPase activity, raw data of dose-dependent inhibition” value was 97.37 and 99.94 and 104.98 and 87.87 and 104.85 and 101.28. Moreover, under setting [10], the “H+,K+-ATPase activity, raw data of dose-dependent inhibition” value is 98.23 and 101.36 and 99.76 and 99.57 and 100.69 and 98.11. Moreover, under setting [11], the “H+,K+-ATPase activity, raw data of dose-dependent inhibition” value is 101.57 and 100.61 and 99.59 and 102.17 and 101.49 and 97.6. Besides, the “H+,K+-ATPase activity, raw data of dose-dependent inhibition” value under setting [12] was 101.41 and 100.27 and 102.04 and 101.19 and 98.33 and 99.11.
`CNCC#CCn1ccc2cccc(C#Cc3cccc(Cl)c3)c21` [DQ-16] yielded a half-maximal inhibitory concentration (IC50) of 89.4 ± 13.5 µM. Moreover, under setting [1], the “H+,K+-ATPase activity, raw data of dose-dependent inhibition” value was 24.42 and 42.17. Further, under setting [2], the “H+,K+-ATPase activity, raw data of dose-dependent inhibition” value is 44.41 and 66.92. Moreover, the “H+,K+-ATPase activity, raw data of dose-dependent inhibition” value under setting [3] is 87.71 and 67.55. Besides, the “H+,K+-ATPase activity, raw data of dose-dependent inhibition” value under setting [4] was 103.26 and 71.7 and 101.95 and 107.11 and 107.49 and 103.62. For the same molecule, the “H+,K+-ATPase activity, raw data of dose-dependent inhibition” value under setting [5] is 107.4 and 104.96 and 100.44 and 100.8 and 99.65 and 99.6. Besides, the “H+,K+-ATPase activity, raw data of dose-dependent inhibition” value under setting [6] is 105.07 and 103.28 and 102.18 and 95.06 and 104.24 and 100.65. The “H+,K+-ATPase activity, raw data of dose-dependent inhibition” value under setting [7] is 112.46 and 113.5 and 115.83 and 115.26 and 112.62 and 114.01. In addition, the “H+,K+-ATPase activity, raw data of dose-dependent inhibition” value under setting [8] was 106.69 and 106.05 and 103.52 and 103.99 and 105.16 and 107.1. Further, the “H+,K+-ATPase activity, raw data of dose-dependent inhibition” value under setting [9] is 101.16 and 99.6 and 102.96 and 104.58 and 100.87 and 100.34. Moreover, the “H+,K+-ATPase activity, raw data of dose-dependent inhibition” value under setting [10] was 95.95 and 99.26 and 100.97 and 100.31 and 101.14 and 100.94. The “H+,K+-ATPase activity, raw data of dose-dependent inhibition” value under setting [11] was 95.83 and 94.95 and 90.34 and 101.71 and 99.53 and 101.3. In addition, the “H+,K+-ATPase activity, raw data of dose-dependent inhibition” value under setting [12] was 95.82 and 93.84 and 98.4 and 100.56 and 99.28 and 103.27.
